Laboratory results reported in patent US12503461B2, “Pesticidally active heterocyclic derivatives with sulfur and sulfoximine containing substituents” (SYNGENTA CROP PROTECTION AG, priority 2019, dated 2025).

Legend:
Assay type in all cases: in vivo
[1] = tested on: Diabrotica balteata (Corn Root Worm); test: Example B1: Diabrotica balteata (corn root worm), sprayed maize sprouts on agar, L2 larvae; conditions: 96 h, application rate of 200 ppm, 4 days after infestation, in comparison to untreated samples, read-out: effect in at least one of the two categories (mortality or growth inhibition)
Protocol: Example B1: Diabrotica balteata (Corn Root Worm
Maize sprouts placed onto an agar layer in 24-well microtiter plates were treated with aqueous test solutions prepared from 10′000 ppm DMSO stock solutions by spraying. After drying, the plates were infested with L2 larvae (6 to 10 per well). The samples were assessed for mortality and growth inhibition in comparison to untreated samples 4 days after infestation.

[2] = tested on: Spodoptera littoralis (Egyptian Cotton Leaf Worm); test: Example B7: Spodoptera littoralis (Egyptian cotton leaf worm), sprayed cotton leaf discs, L1 larvae; conditions: foliar, 72 h, application rate of 200 ppm, 3 days after infestation, in comparison to untreated samples
Protocol: Example B7: Spodoptera littoralis (Egyptian Cotton Leaf Worm
Cotton leaf discs were placed onto agar in 24-well microtiter plates and sprayed with aqueous test solutions prepared from 10′000 ppm DMSO stock solutions. After drying the leaf discs were infested with five L1 larvae. The samples were assessed for mortality, anti-feeding effect, and growth inhibition in comparison to untreated samples 3 days after infestation. Control of Spodoptera littoralis by a test sample is given when at least one of the categories mortality, anti-feedant effect, and growth inhibition is higher than the untreated sample.

[3] = tested on: Plutella xylostella (Diamond Back Moth); test: Example B4: Plutella xylostella (diamond back moth), treated artificial diet, eggs; conditions: 192 h, application rate of 200 ppm, 8 days after infestation, in comparison to untreated samples, read-out: effect in at least one of the two categories (mortality or growth inhibition)
Protocol: Example B4: Plutella xylostella (Diamond Back Moth
24-well microtiter plates with artificial diet were treated with aqueous test solutions prepared from 10′000 ppm DMSO stock solutions by pipetting. After drying, Plutella eggs were pipetted through a plastic stencil onto a gel blotting paper and the plate was closed with it. The samples were assessed for mortality and growth inhibition in comparison to untreated samples 8 days after infestation.

[4] = tested on: Euschistus heros (Neotropical Brown Stink Bug); test: Example B2: Euschistus heros (neotropical brown stink bug), sprayed soybean leaves, N2 nymphs; conditions: 120 h, application rate of 200 ppm, 5 days after infestation, in comparison to untreated samples, read-out: effect in at least one of the two categories (mortality or growth inhibition)
Protocol: Example B2: Euschistus heros (Neotropical Brown Stink Bug
Soybean leaves on agar in 24-well microtiter plates were sprayed with aqueous test solutions prepared from 10′000 ppm DMSO stock solutions. After drying the leaves were infested with N2 nymphs. The samples were assessed for mortality and growth inhibition in comparison to untreated samples 5 days after infestation.

CCN=S(=O)(c1ccc2oc(-c3ncc(C4(C#N)CC4)cc3S(=O)(=O)CC)nc2c1)C(F)(F)F (stereo not drawn) [P8, 1-[5-ethylsulfonyl-6-[5-[N-ethyl-S-(trifluoromethyl)sulfonimidoyl]-1,3-benzoxazol-2-yl]-3-pyridyl]cyclopropanecarbonitrile]
≥ 80%: percent effect (mortality or growth inhibition) at 200 ppm [1] | percent control (mortality, anti-feeding effect or growth inhibition) at 200 ppm [2] | percent effect (mortality or growth inhibition) at 200 ppm [3] | effect (mortality or growth inhibition) at 200 ppm [4]

CCN=S(=O)(c1ccc2oc(-c3ncc(Oc4ccccn4)cc3S(=O)(=O)CC)nc2c1)C(F)(F)F (stereo not shown) [P10, ethylimino-[2-[3-ethylsulfonyl-5-(2-pyridyloxy)-2-pyridyl]-1,3-benzoxazol-5-yl]-oxo-(trifluoromethyl)-λ^6-sulfane]
≥ 80%: percent effect (mortality or growth inhibition) at 200 ppm [1] | percent control (mortality, anti-feeding effect or growth inhibition) at 200 ppm [2] | percent effect (mortality or growth inhibition) at 200 ppm [3] | effect (mortality or growth inhibition) at 200 ppm [4]

CCS(=O)(=O)c1cccnc1-c1nc2cc(S(=N)(=O)C(F)(F)F)ccc2o1 (stereo not shown) [P16, [2-(3-ethylsulfonyl-2-pyridyl)-1,3-benzoxazol-5-yl]-imino-oxo-(trifluoromethyl)-λ^6-sulfane]
≥ 80%: percent effect (mortality or growth inhibition) at 200 ppm [1] | percent control (mortality, anti-feeding effect or growth inhibition) at 200 ppm [2] | percent effect (mortality or growth inhibition) at 200 ppm [3] | effect (mortality or growth inhibition) at 200 ppm [4]

CCN=S(=O)(c1ccc2oc(-c3ncc(OCC(F)(F)F)cc3S(=O)(=O)CC)nc2c1)C(F)(F)F (stereo not shown) [P22, ethylimino-[2-[3-ethylsulfonyl-5-(2,2,2-trifluoroethoxy)-2-pyridyl]-1,3-benzoxazol-5-yl]-oxo-(trifluoromethyl)-λ^6-sulfane]
≥ 80%: percent effect (mortality or growth inhibition) at 200 ppm [1] | percent control (mortality, anti-feeding effect or growth inhibition) at 200 ppm [2] | percent effect (mortality or growth inhibition) at 200 ppm [3] | effect (mortality or growth inhibition) at 200 ppm [4]

CCS(=O)(=O)c1cc(OCC(F)(F)F)cnc1-c1nc2cc(S(=O)(=NC(C)=O)C(F)(F)F)ccc2o1 (stereo not shown) [P24, N-[[2-[3-ethylsulfonyl-5-(2,2,2-trifluoroethoxy)-2-pyridyl]-1,3-benzoxazol-5-yl]-oxo-(trifluoromethyl)-λ^6-sulfanylidene]acetamide]
≥ 80%: percent effect (mortality or growth inhibition) at 200 ppm [1] | percent control (mortality, anti-feeding effect or growth inhibition) at 200 ppm [2] | percent effect (mortality or growth inhibition) at 200 ppm [3] | effect (mortality or growth inhibition) at 200 ppm [4]

CCS(=O)(=O)c1cc(Oc2ccccn2)cnc1-c1nc2cc(S(=O)(=NC(C)=O)C(F)(F)F)ccc2o1 (stereo not shown) [P25, N-[[2-[3-ethylsulfonyl-5-(2-pyridyloxy)-2-pyridyl]-1,3-benzoxazol-5-yl]-oxo-(trifluoromethyl)-λ^6-sulfanylidene]acetamide]
≥ 80%: percent effect (mortality or growth inhibition) at 200 ppm [1] | percent control (mortality, anti-feeding effect or growth inhibition) at 200 ppm [2] | percent effect (mortality or growth inhibition) at 200 ppm [3] | effect (mortality or growth inhibition) at 200 ppm [4]

CCS(=O)(=O)c1cc(C2(C#N)CC2)cnc1-c1nc2cc(S(=O)(=NC)C(F)(F)F)ccc2o1 (stereo not drawn) [P29, 1-[5-ethylsulfonyl-6-[5-[N-methyl-S-(trifluoromethyl)sulfonimidoyl]-1,3-benzoxazol-2-yl]-3-pyridyl]cyclopropanecarbonitrile]
≥ 80%: percent effect (mortality or growth inhibition) at 200 ppm [1] | percent control (mortality, anti-feeding effect or growth inhibition) at 200 ppm [2] | percent effect (mortality or growth inhibition) at 200 ppm [3] | effect (mortality or growth inhibition) at 200 ppm [4]

CCS(=O)(=O)c1cc(C2(C#N)CC2)cnc1-c1nc2cc(S(=O)(=NC3CC3)C(F)(F)F)ccc2n1C (stereo not drawn) [P31, 1-[6-[5-[N-cyclopropyl-S-(trifluoromethyl)sulfonimidoyl]-1-methyl-benzimidazol-2-yl]-5-ethylsulfonyl-3-pyridyl]cyclopropanecarbonitrile]
≥ 80%: percent effect (mortality or growth inhibition) at 200 ppm [1] | percent effect (mortality or growth inhibition) at 200 ppm [3] | effect (mortality or growth inhibition) at 200 ppm [4]
